Bridge positions count the residues as written; N and C are the ends. Square brackets hold non-standard residues; d marks the D form. Ends that are not written are not given here. 2Nal = N[C@@H](Cc1ccc2ccccc2c1)C(=O)O; Dap = NC[C@H](N)C(=O)O
Test system: HeLa cells
Assay: Cellular uptake / cytosolic delivery efficiency of NF-labelled peptides by flow cytometry
Type: cell-based
Settings: 2 h, 5 mM naphthofluorescein-labelled peptide, relative to CPP 1 (100%), mean ± S.D. of three independent experiments
Excerpt: Absolute cytosolic delivery efficiency is the ratio of cytosolic concentration of a CPP (or a CPP-cargo conjugate) over the concentration of the CPP (or the CPP-cargo conjugate) in the growth medium. Relative cytosolic delivery efficiency refers to the concentration of a CPP in the cytosol compared to the concentration of a control CPP in the cytosol. Quantification can be achieved by fluorescently labeling the CPP (e.g., with a FTIC dye) and measuring the fluorescence intensity using techniques well-known in the art.
In particular embodiments, relative cytosolic delivery efficiency is determined by comparing (i) the amount of a CPP of the invention internalized by a cell type (e.g., HeLa cells) to (ii) the amount of the control CPP internalized by the same cell type. To measure relative cytosolic delivery efficiency, the cell type may be incubated in the presence of a cell-penetrating peptide of the invention for a specified period of time (e.g., 30 minutes, 1 hour, 2 hours, etc.) after which the amount of the CPP internalized by the cell is quantified using methods known in the art, e.g., fluorescence microscopy. Separately, the same concentration of the control CPP is incubated in the presence of the cell type over the same period of time, and the amount of the control CPP internalized by the cell is quantified.
To determine cellular uptake efficiency of the CPPs disclosed herein, HeLa cells were cultured in 12-well plates (1.5×10^5 cells per well) overnight. The cells were incubated for 2 h with […] naphthofluorescein (NF)-labelled peptide in cellular media. At the end of incubation, the cells were washed with DPBS twice, detached from the plate with 0.25% trypsin, diluted into clear DMEM, pelleted at 250 g for 5 min, washed twice with DPBS, resuspended in DPBS, and analyzed on a BD FACS LSR II flow cytometer. For NF-labelled peptides, a 633-nm laser was used for excitation and the fluorescence emission was analyzed in the APC channel. Absolute cellular uptake efficiency was determined by comparing the concentration (via fluorescence intensity) of the CPP in the cytosol to the concentration in the extracellular medium.

| Substance | Relative Cytosolic Delivery Efficiency [%] |
| --- | --- |
| SAR 70 (CFWRRRRC; disulfide 1-8) | 49 |
| cyclo(FΦrRrQ) (cyclo(F[2Nal][dR]R[dR]Q); SMILES N=C(N)NCCC[C@@H]1NC(=O)[C@@H](CCCNC(=N)N)NC(=O)[C@H](Cc2ccc3ccccc3c2)NC(=O)[C@H](Cc2ccccc2)NC(=O)[C@H](CCC(N)=O)NC(=O)[C@@H](CCCNC(=N)N)NC1=O) [SAR 64] | 63 ± 11 |
| cyclo(RFFRRRRQ) (cyclic) [SAR 46] | 104 ± 5 |
| cyclo(Pip-Nal-nal-Arg-arg-arg-Glu) [Pin1 23] | 215 ± 86 |
| cyclo(FRRFRQ) (cyclic) [SAR 23] | 38 ± 10 |
| cyclo(FFRrRQ) (cyclo(FFR[dR]RQ); SMILES N=C(N)NCCC[C@@H]1NC(=O)[C@H](Cc2ccccc2)NC(=O)[C@H](Cc2ccccc2)NC(=O)[C@H](CCC(N)=O)NC(=O)[C@H](CCCNC(=N)N)NC(=O)[C@@H](CCCNC(=N)N)NC1=O) [SAR 21] | 59 ± 7 |
| cyclo(RFRRFRQ) (cyclic) [SAR 32] | 94 ± 9 |
| cyclo(RRFFFRRQ) (cyclic) [SAR 49] | 112 ± 20 |
| cyclo(FRRRFQ) (cyclic) [SAR 24] | 25 ± 4 |
| cyclo(FRFRRRQ) (cyclic) [SAR 33] | 132 ± 57 |
| cyclo(RRFFRRRQ) (cyclic) [SAR 47] | 115 ± 20 |
| cyclo(FRRFFRQ) (cyclic) [SAR 40] | 109 ± 11 |
| cyclo(FFRRRFQ) (cyclic) [SAR 35] | 158 ± 21 |
| cyclo(RRFFFRQ) (cyclic) [SAR 37] | 172 ± 24 |
| cyclo(RFFRRRQ) (cyclic) [SAR 31] | 63 ± 19 |
| SAR 71 (CWWWRRRC; disulfide 1-8) | 135 |
| cyclo(RFFRFRQ) (cyclic) [SAR 43] | 96 ± 31 |
| Ac-(Dap-fFRrRrD) (Ac-[Dap][dF]FR[dR]R[dR]D; not fully specified (bridges); printed as Ac-(Dap-fFRrRrD); also: cyclic, closure sites not given here) [SAR 67] | 126 ± 33 |
| cyclo(Pip-Nal-Nal-Arg-arg-arg-glu) [Pin1 17] | 506 ± 120 |
| cyclo(FRRFFRRQ) (cyclic) [SAR 52] | 127 ± 22 |
| cyclo(Pip-Nal-nal-Arg-arg-arg-glu) [Pin1 24] | 141 ± 64 |
| cyclo(fFfrRrQ) (cyclo([dF]F[dF][dR]R[dR]Q); SMILES N=C(N)NCCC[C@@H]1NC(=O)[C@@H](CCCNC(=N)N)NC(=O)[C@@H](Cc2ccccc2)NC(=O)[C@H](Cc2ccccc2)NC(=O)[C@@H](Cc2ccccc2)NC(=O)[C@H](CCC(N)=O)NC(=O)[C@@H](CCCNC(=N)N)NC1=O) [SAR 58] | 280 ± 106 |
| cyclo(FfFrRrQ) (cyclo(F[dF]F[dR]R[dR]Q); SMILES N=C(N)NCCC[C@@H]1NC(=O)[C@@H](CCCNC(=N)N)NC(=O)[C@H](Cc2ccccc2)NC(=O)[C@@H](Cc2ccccc2)NC(=O)[C@H](Cc2ccccc2)NC(=O)[C@H](CCC(N)=O)NC(=O)[C@@H](CCCNC(=N)N)NC1=O) [SAR 60] | 205 ± 30 |

Reference: patent US20240360174A1, “CELL-PENETRATING PEPTIDE SEQUENCES” (Ohio State Innovation Foundation, priority 2016, published 2024)
